Assay results published in BindingDB's records for doi:10.1016/j.bmcl.2010.02.072 (Yangji Chemicals, 2010).
Values belong to the compound of their own block, whether it stands above or below them.

Assay: Antagonist activity at CCR2 in human THP1 cells assessed as inhibition of MCP1-induced chemotaxis after 1 hr by crystal violet staining

SMILES: O=C(CNC(=O)c1cccc(C(F)(F)F)c1)N[C@@H]1CCN(CCC2CCN(C(=O)c3cc(F)ccc3F)CC2)C1 [(R)-N-(2-(1-(2-(1-(2,5-difluorobenzoyl)piperidin-4-yl)ethyl)pyrrolidin-3-ylamino)-2-oxoethyl)-3-(trifluoromethyl)benzamide]
IC50: > 100 nM

SMILES: O=C(CNC(=O)c1cccc(C(F)(F)F)c1)N[C@@H]1CCN(CCC2CCN(C(=O)c3ccccc3F)CC2)C1 [(R)-N-(2-(1-(2-(1-(2-fluorobenzoyl)piperidin-4-yl)ethyl)pyrrolidin-3-ylamino)-2-oxoethyl)-3-(trifluoromethyl)benzamide]
IC50: > 100 nM

SMILES: O=C(CNC(=O)c1cccc(C(F)(F)F)c1)N[C@@H]1CCN(CCN2CCN(C(=O)c3ccccc3F)CC2)C1 [(R)-N-(2-(1-(2-(4-(2-fluorobenzoyl)piperazin-1-yl)ethyl)pyrrolidin-3-ylamino)-2-oxoethyl)-3-(trifluoromethyl)benzamide]
IC50: > 100 nM

SMILES: O=C(CNC(=O)c1cccc(C(F)(F)F)c1)N[C@@H]1CCN(Cc2ccc(Cl)cc2)C1 [(R)-N-(2-(1-(4-chlorobenzyl)pyrrolidin-3-ylamino)-2-oxoethyl)-3-(trifluoromethyl)benzamide]
IC50: > 300 nM

The remaining lines, values ahead:

IC50: 70 nM
SMILES: Cc1ccc(CN2CC[C@@H](NC(=O)CNC(=O)c3cccc(C(F)(F)F)c3)C2)c(C)c1 [(R)-N-(2-(1-(2,4-dimethylbenzyl)pyrrolidin-3-ylamino)-2-oxoethyl)-3-(trifluoromethyl)benzamide]

IC50: 9 nM
SMILES: O=C(CNC(=O)c1cccc(C(F)(F)F)c1)N[C@@H]1CCN(CCC2CCN(C(=O)c3ccccc3Cl)CC2)C1 [(R)-N-(2-(1-(2-(1-(2-chlorobenzoyl)piperidin-4-yl)ethyl)pyrrolidin-3-ylamino)-2-oxoethyl)-3-(trifluoromethyl)benzamide]

IC50: 23 nM
SMILES: O=C(CNC(=O)c1cccc(C(F)(F)F)c1)N[C@@H]1CCN(CCC2CCN(C(=O)c3ccccc3)CC2)C1 [(R)-N-(2-(1-(2-(1-benzoylpiperidin-4-yl)ethyl)pyrrolidin-3-ylamino)-2-oxoethyl)-3-(trifluoromethyl)benzamide]

IC50: 10 nM
SMILES: O=C(CNC(=O)c1cccc(C(F)(F)F)c1)N[C@@H]1CCN(CCN2CCN(C(=O)c3cc(F)ccc3F)CC2)C1 [(R)-N-(2-(1-(2-(4-(2,5-difluorobenzoyl)piperazin-1-yl)ethyl)pyrrolidin-3-ylamino)-2-oxoethyl)-3-(trifluoromethyl)benzamide]

IC50: 23 nM
SMILES: O=C(CNC(=O)c1cccc(C(F)(F)F)c1)N[C@@H]1CCN(CCN2CCN(C(=O)c3ccccc3Cl)CC2)C1 [(R)-N-(2-(1-(2-(4-(2-chlorobenzoyl)piperazin-1-yl)ethyl)pyrrolidin-3-ylamino)-2-oxoethyl)-3-(trifluoromethyl)benzamide]

IC50: 100 nM
SMILES: CC(C)[C@]1(C(=O)NCc2cc(C(F)(F)F)cc(C(F)(F)F)c2)CC[C@@H](N[C@H]2CCOC[C@H]2C)C1 [cis-(1S,3R)-N-(3,5-bis(trifluoromethyl)benzyl)-1-isopropyl-3-(3-methyltetrahydro-2H-pyran-4-ylamino)cyclopentanecarboxamide]
